PubChem BioAssay AID180 (DTP/NCI, 2004)
“And” between values parts separate entries of the source, which are not always exact repeats. Equal values may be shown once.

Tested on: BDF1 mice, Adenocarcinoma 755 s.c., tumor weight T/C
Test: NCI In Vivo Anticancer Drug Screen. Data for tumor model Adenocarcinoma 755 (subcutaneous) in B6D2F1 (BDF1) mice
Conditions: endpoint: mean tumor weight, higher = larger tumour
Procedure, shortened: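 Transplantable tumor implanted; mice dosed with compound or vehicle; survival or tumor size recorded; ratio of treated to vehicle control reported.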

[1] = dose: 100.0 mg/kg/injection, schedule: Q01DX011 (ip), vehicle: saline

Cc1cc2nc3c(=O)[nH]c(=O)nc-3n(CCOC(=O)CCC(=O)O)c2cc1C
T/C (dose: 29.46 mg/kg/injection, schedule: Q01DX011 (ip), vehicle: carboxymethylcellulose (CMC)): 88 % of control | T/C (dose: 40.0 mg/kg/injection, schedule: Q01DX011 (ip), vehicle: carboxymethylcellulose (CMC)): 91 % of control | T/C (dose: 58.93 mg/kg/injection, schedule: Q01DX011 (ip), vehicle: carboxymethylcellulose (CMC)): 94 % of control | T/C (dose: 80.0 mg/kg/injection, schedule: Q01DX011 (ip), vehicle: carboxymethylcellulose (CMC)): 122 % of control | T/C (dose: 117.85 mg/kg/injection, schedule: Q01DX011 (ip), vehicle: carboxymethylcellulose (CMC)): 93 % of control | T/C (dose: 126.0 mg/kg/injection, schedule: Q01DX011 (ip), vehicle: carboxymethylcellulose (CMC)): 107 % of control | T/C (dose: 160.0 mg/kg/injection, schedule: Q01DX011 (ip), vehicle: carboxymethylcellulose (CMC)): 59 % of control | T/C (dose: 235.7 mg/kg/injection, schedule: Q01DX011 (ip), vehicle: carboxymethylcellulose (CMC)): 90 % of control | T/C (dose: 252.0 mg/kg/injection, schedule: Q01DX011 (ip), vehicle: carboxymethylcellulose (CMC)): 115 % of control

CN(C)N=Nc1ccc(C(=O)NC(CCC(=O)NN)C(=O)NN)cc1 (centres undefined)
T/C [1]: 92 % of control | T/C (dose: 150.0 mg/kg/injection, schedule: Q01DX011 (ip), vehicle: saline): 81 % of control

CC(=O)[C@H]1[C@H](O)C[C@H]2[C@@H]3CCC4=CC(=O)CC[C@]4(C)[C@@]3(F)[C@@H](O)C[C@@]21C
T/C (dose: 100.0 mg/kg/injection, schedule: Q01DX011 (sc), vehicle: steriod suspending solution): 48 % of control | T/C (dose: 125.0 mg/kg/injection, schedule: Q01DX011 (oral), vehicle: steriod suspending solution): 74 % of control | T/C (dose: 200.0 mg/kg/injection, schedule: Q01DX011 (sc), vehicle: steriod suspending solution): 38 % of control | T/C (dose: 250.0 mg/kg/injection, schedule: Q01DX011 (oral), vehicle: steriod suspending solution): 57 % of control | T/C (dose: 400.0 mg/kg/injection, schedule: Q01DX011 (sc), vehicle: steriod suspending solution): 36 % of control | T/C (dose: 500.0 mg/kg/injection, schedule: Q01DX011 (oral), vehicle: steriod suspending solution): 62 % of control | T/C (dose: 800.0 mg/kg/injection, schedule: Q01DX011 (sc), vehicle: steriod suspending solution): 26 % of control | T/C (dose: 1000.0 mg/kg/injection, schedule: Q01DX011 (oral), vehicle: steriod suspending solution): 58 % of control

O=C1C=CC(=O)O1 (tested in a mixture with another compound)
T/C (dose: 11.0 mg/kg/injection, schedule: Q01DX011 (ip), vehicle: carboxymethylcellulose (CMC)): 39 % of control and 57 % of control | T/C (dose: 11.0 mg/kg/injection, schedule: Q01DX011 (ip), vehicle: saline): 56 % of control | T/C (dose: 22.0 mg/kg/injection, schedule: Q01DX011 (ip), vehicle: carboxymethylcellulose (CMC)): 18 % of control and 38 % of control | T/C (dose: 22.0 mg/kg/injection, schedule: Q01DX011 (ip), vehicle: saline): 31 % of control | T/C (dose: 90.0 mg/kg/injection, schedule: Q01DX011 (ip), vehicle: carboxymethylcellulose (CMC)): 11 % of control and 32 % of control

O=[As]O
T/C (dose: 0.12 mg/kg/injection, schedule: Q01DX011 (ip), vehicle: carboxymethylcellulose (CMC)): 116 % of control | T/C (dose: 0.25 mg/kg/injection, schedule: Q01DX011 (ip), vehicle: carboxymethylcellulose (CMC)): 86 % of control | T/C (dose: 0.5 mg/kg/injection, schedule: Q01DX011 (ip), vehicle: carboxymethylcellulose (CMC)): 98 % of control | T/C (dose: 1.0 mg/kg/injection, schedule: Q01DX011 (ip), vehicle: carboxymethylcellulose (CMC)): 77 % of control | T/C (dose: 1.63 mg/kg/injection, schedule: Q01DX011 (ip), vehicle: carboxymethylcellulose (CMC)): 70 % of control | T/C (dose: 2.0 mg/kg/injection, schedule: Q01DX011 (ip), vehicle: carboxymethylcellulose (CMC)): 19 % of control | T/C (dose: 2.0 mg/kg/injection, schedule: Q01DX011 (ip), vehicle: methylcellulose (MC)): 66 % of control | T/C (dose: 3.15 mg/kg/injection, schedule: Q01DX011 (ip), vehicle: carboxymethylcellulose (CMC)): 124 % of control | T/C (dose: 3.25 mg/kg/injection, schedule: Q01DX011 (ip), vehicle: carboxymethylcellulose (CMC)): 72 % of control | T/C (dose: 5.0 mg/kg/injection, schedule: Q01DX011 (ip), vehicle: carboxymethylcellulose (CMC)): 21 % of control | T/C (dose: 5.0 mg/kg/injection, schedule: Q01DX011 (ip), vehicle: methylcellulose (MC)): 52 % of control | T/C (dose: 6.3 mg/kg/injection, schedule: Q01DX011 (ip), vehicle: carboxymethylcellulose (CMC)): 67 % of control | T/C (dose: 8.66 mg/kg/injection, schedule: Q01DX011 (ip), vehicle: carboxymethylcellulose (CMC)): 63 % of control and 70 % of control | T/C (dose: 12.6 mg/kg/injection, schedule: Q01DX011 (ip), vehicle: carboxymethylcellulose (CMC)): 67 % of control | T/C (dose: 13.0 mg/kg/injection, schedule: Q01DX011 (ip), vehicle: carboxymethylcellulose (CMC)): 28 % of control and 35 % of control

C[N+](C)(C)c1ncnc2c1ncn2C1CCCO1 (centres undefined)
T/C (dose: 18.7 mg/kg/injection, schedule: Q01DX011 (ip), vehicle: saline): 100 % of control | T/C (dose: 37.5 mg/kg/injection, schedule: Q01DX011 (ip), vehicle: saline): 5 % of control | T/C [1]: 2 % of control

O=C(CCBr)NCNC(=O)CCBr
T/C (dose: 28.0 mg/kg/injection, schedule: Q01DX011 (ip), vehicle: methylcellulose (MC)): 56 % of control | T/C (dose: 57.0 mg/kg/injection, schedule: Q01DX011 (ip), vehicle: methylcellulose (MC)): 28 % of control

Oc1ccc2ccccc2c1N=Nc1ccc(N=Nc2ccccc2)cc1
T/C (dose: 25.0 mg/kg/injection, schedule: Q01DX011 (ip), vehicle: carboxymethylcellulose (CMC)): 121 % of control | T/C (dose: 100.0 mg/kg/injection, schedule: Q01DX011 (ip), vehicle: carboxymethylcellulose (CMC)): 116 % of control | T/C (dose: 200.0 mg/kg/injection, schedule: Q01DX011 (ip), vehicle: carboxymethylcellulose (CMC)): 108 % of control

Cc1ccc(CNc2ncnc3[nH]ncc23)cc1C
T/C (dose: 25.0 mg/kg/injection, schedule: Q01DX011 (ip), vehicle: methylcellulose (MC)): 95 % of control | T/C (dose: 50.0 mg/kg/injection, schedule: Q01DX011 (ip), vehicle: methylcellulose (MC)): 72 % of control | T/C (dose: 100.0 mg/kg/injection, schedule: Q01DX011 (ip), vehicle: methylcellulose (MC)): 64 % of control | T/C (dose: 300.0 mg/kg/injection, schedule: Q01DX011 (ip), vehicle: methylcellulose (MC)): 68 % of control

C[N+]1(C)CCN(C(=O)CCCl)CC1
T/C (dose: 3.1 mg/kg/injection, schedule: Q01DX011 (ip), vehicle: other): 47 % of control | T/C (dose: 6.2 mg/kg/injection, schedule: Q01DX011 (ip), vehicle: other): 93 % of control | T/C (dose: 12.5 mg/kg/injection, schedule: Q01DX011 (ip), vehicle: other): 66 % of control

S=P(N1CC1)(N1CC1)N1CC1
T/C (dose: 0.3 mg/kg/injection, schedule: Q01DX011 (ip), vehicle: carboxymethylcellulose (CMC)): 60 % of control | T/C (dose: 0.48 mg/kg/injection, schedule: Q01DX011 (ip), vehicle: carboxymethylcellulose (CMC)): 45 % of control | T/C (dose: 0.58 mg/kg/injection, schedule: Q01DX011 (ip), vehicle: carboxymethylcellulose (CMC)): 91 % of control | T/C (dose: 0.6 mg/kg/injection, schedule: Q01DX011 (ip), vehicle: carboxymethylcellulose (CMC)): 53 % of control and 62 % of control (2×) | T/C (dose: 0.65 mg/kg/injection, schedule: Q01DX011 (ip), vehicle: carboxymethylcellulose (CMC)): 90 % of control | T/C (dose: 0.75 mg/kg/injection, schedule: Q01DX011 (ip), vehicle: methylcellulose (MC)): 62 % of control | T/C (dose: 0.8 mg/kg/injection, schedule: Q01DX011 (ip), vehicle: carboxymethylcellulose (CMC)): 53 % of control and 77 % of control | T/C (dose: 1.3 mg/kg/injection, schedule: Q01DX011 (ip), vehicle: carboxymethylcellulose (CMC)): 54 % of control | T/C (dose: 1.45 mg/kg/injection, schedule: Q01DX011 (ip), vehicle: carboxymethylcellulose (CMC)): 89 % of control and 99 % of control | T/C (dose: 1.5 mg/kg/injection, schedule: Q01DX011 (ip), vehicle: methylcellulose (MC)): 37 % of control | T/C (dose: 2.4 mg/kg/injection, schedule: Q01DX011 (ip), vehicle: carboxymethylcellulose (CMC)): 14 % of control and 29 % of control and 38 % of control | T/C (dose: 2.6 mg/kg/injection, schedule: Q01DX011 (ip), vehicle: carboxymethylcellulose (CMC)): 35 % of control | T/C (dose: 2.9 mg/kg/injection, schedule: Q01DX011 (ip), vehicle: carboxymethylcellulose (CMC)): 28 % of control and 52 % of control | T/C (dose: 3.0 mg/kg/injection, schedule: Q01DX011 (ip), vehicle: methylcellulose (MC)): 14 % of control | T/C (dose: 5.2 mg/kg/injection, schedule: Q01DX011 (ip), vehicle: carboxymethylcellulose (CMC)): 7 % of control and 9 % of control | T/C (dose: 6.0 mg/kg/injection, schedule: Q01DX011 (ip), vehicle: methylcellulose (MC)): 6 % of control | T/C (dose: 725.0 micrograms/kg/injection, schedule: Q01DX011 (ip), vehicle: carboxymethylcellulose (CMC)): 83 % of control | T/C (dose: 1450.0 micrograms/kg/injection, schedule: Q01DX011 (ip), vehicle: carboxymethylcellulose (CMC)): 30 % of control | T/C (dose: 2900.0 micrograms/kg/injection, schedule: Q01DX011 (ip), vehicle: carboxymethylcellulose (CMC)): 36 % of control | T/C (dose: 5800.0 micrograms/kg/injection, schedule: Q01DX011 (ip), vehicle: carboxymethylcellulose (CMC)): 26 % of control
